From paper PMC11739741 (Clinical Pharmacology and Therapeutics, 2024)
“Also recorded” adds a separate entry of the source. Like-named read-outs stand apart in the source and are kept apart here. Blank lines part the entries; values can stand above or below the molecule they belong to.

What was measured:
[1] = MTX/GLPG3970 DDI study: plasma pharmacokinetics; format: in vivo, human; conditions: for Intra‐participant variability of AUC0–∞ and C max: MTX/GLPG3970 DDI study; for AUC(0-inf): AUC0–∞
[2] = cited from earlier work
[3] = cited from earlier work; remark: listed apart in the source
[4] = tested on: breast cancer resistance protein (BCRP); conditions: at clinically relevant concentrations; ref unpublished data; cited from earlier work
[5] = SSZ/GLPG3970 DDI study: plasma pharmacokinetics; format: in vivo, human; conditions: for AUC(0-t) / AUC(0-inf) / Cmax: human, plasma, oral, geometric LS mean (95% CI); for AUC(0-t): AUC0–t; for AUC(0-inf): AUC0–∞; for Cmax: C max
[6] = Day 5 (GLPG3970 + MTX) vs. day 1 (MTX alone)
[7] = GLPG3970 350 mg + MTX 7.5 mg, Day 5 (n = 14)
[8] = MTX 7.5 mg alone, Day 1 (n = 15)
[9] = 1000 mg, SSZ 1,000 mg alone, Day 1 (n = 8)
[10] = GLPG3970 350 mg 2 h after SSZ 1,000 mg, Day 9 (n = 7)
[11] = GLPG3970 350 mg + SSZ 1,000 mg, Day 5 (n = 7)
[12] = Day 5 (GLPG3970 + SSZ) vs. day 1 (SSZ alone)
[13] = Day 9 (GLPG3970 2 h after SSZ) vs. day 1 (SSZ alone)

AUC0–t, geometric LS mean ratio (90% CI) [1, 6]: 80 (69, 92) %
C max, geometric LS mean ratio (90% CI) [1, 6]: 77 (72, 82) %
AUC0–t, geometric LS mean (95% CI) [1, 7]: 392 (332, 463) ng.h/mL
C max, geometric LS mean (95% CI) [1, 7]: 27.0 (23.9, 30.4) ng/mL
AUC0–t, geometric LS mean (95% CI) [1, 8]: 490 (418, 576) ng.h/mL
C max, geometric LS mean (95% CI) [1, 8]: 35.0 (31.1, 39.4) ng/mL
Reduction in AUC0–t ([1]; MTX + GLPG3970 vs. MTX alone): 20%
Reduction in C max ([1]; MTX + GLPG3970 vs. MTX alone): 23%
Reduction in exposure ([1]; MTX + GLPG3970 vs. MTX alone): 20–23%
Intra‐participant variability of AUC0–∞ and C max [1]: 10–22%
SMILES: CN(Cc1nc2c(N)nc(N)nc2[nH]c1=O)c1ccc(C(=O)N[C@@H](CCC(=O)O)C(=O)O)cc1 [7‐OH‐MTX, 7‐hydroxy‐methotrexate]

AUC0–t, geometric LS mean (95% CI) [1, 7]: 583 (523, 649) ng.h/mL
Time after which plasma concentrations fell below the LLOQ ([1]; MTX 7.5 mg, LLOQ 5 ng/mL): 12 h
Intra‐participant variability of AUC0–∞ and C max [1]: 10–22%
AUC(0-t) ([1]; human, plasma, oral, 7.5 mg, AUC0–t, geometric LS mean (95% CI), MTX 7.5 mg alone, Day 1 (n = 15)): 0.627 µg·h/mL
AUC(0-inf) ([1]; human, plasma, oral, 7.5 mg, geometric LS mean (95% CI), MTX 7.5 mg alone, Day 1 (n = 13)): 0.677 µg·h/mL
AUC(0-inf) ([1]; human, plasma, oral, geometric LS mean (95% CI), GLPG3970 350 mg + MTX 7.5 mg, Day 5 (n = 12)): 0.614 µg·h/mL
Cmax ([1]; human, plasma, oral, C max, geometric LS mean (95% CI), GLPG3970 350 mg + MTX 7.5 mg, Day 5 (n = 14)): 193 ng/mL
SMILES: CN(Cc1cnc2nc(N)nc(N)c2n1)c1ccc(C(=O)N[C@@H](CCC(=O)O)C(=O)O)cc1 [MTX, methotrexate, reference compound]
fraction of dose metabolized in the liver [2]: Approximately 10%
mean t 1/2 [2]: 3 to 10 h
bioavailability ([2]; oral dosing): ~ 60%
excreted unchanged in urine ([2]; within 24 hours): 80–90%

AUC(0-t) [5, 9]: 59.3 µg·h/mL
AUC(0-inf) [5, 9]: 59.8 µg·h/mL
Cmax [5, 9]: 7270 ng/mL
AUC(0-t) [5, 10]: 109 µg·h/mL
AUC(0-t) [5, 11]: 108 µg·h/mL
AUC(0-inf) [5, 10]: 110 µg·h/mL
AUC(0-inf) [5, 11]: 109 µg·h/mL
Cmax [5, 10]: 13100 ng/mL
Cmax [5, 11]: 12000 ng/mL
SMILES: O=C(O)c1cc(/N=N/c2ccc(S(=O)(=O)Nc3ccccn3)cc2)ccc1O [SSZ, sulfasalazine, reference compound]
Time at which systemic concentrations are detectable post‐dosing ([2]; oral, literature, ref not given): ~ 1.5 hours
t max ([2]; post‐dosing, oral SSZ, literature, ref not given): 3 to 12 h

Continued, molecule first:

SMILES: COc1cc(-c2cnc3cc(OCCN4CCOCC4)ccn23)cc2c1C(=O)N(CC(F)(F)F)CC2 [GLPG3970]
Dose proportionality of exposure (AUC) ([3]; across the evaluated dose range): increased more than the dose proportionally
Effect of food consumption on C max ([3]; preliminary work, ref not given): reduced
Tolerability ([3]; single and multiple ascending doses, healthy volunteers): well tolerated
Inhibition of BCRP in vitro [4]: strongly inhibits; also recorded: strong inhibition

SMILES: Nc1ccc(S(=O)(=O)Nc2ccccn2)cc1 [SPD, sulfapyridine]
mean plasma t 1/2 ([2]; fast acetylation phenotype (NAT2)): 10.4 h
mean plasma t 1/2 ([2]; slow acetylation phenotype (NAT2)): 14.8 h
AUC0–t, geometric LS mean ratio (90% CI) [5, 12]: 90 (81, 100) %
AUC0–∞, geometric LS mean ratio (90% CI) [5, 12]: 90 (81, 101) %
C max, geometric LS mean ratio (90% CI) [5, 12]: 90 (78, 102) %
AUC0–t, geometric LS mean ratio (90% CI) [5, 13]: 89 (80, 99) %
AUC0–∞, geometric LS mean ratio (90% CI) [5, 13]: 89 (80, 100) %
C max, geometric LS mean ratio (90% CI) [5, 13]: 94 (82, 107) %
Effect of GLPG3970 on SPD exposure ([5]; SSZ with GLPG3970 (simultaneously or 2 h before) vs. SSZ alone): similar; also recorded: no relevant effect
AUC(0-t) [5, 9]: 119 µg·h/mL
AUC(0-inf) [5, 9]: 125 µg·h/mL
Cmax [5, 9]: 5680 ng/mL
AUC(0-t) [5, 10]: 106 µg·h/mL
AUC(0-t) [5, 11]: 107 µg·h/mL
AUC(0-inf) [5, 10]: 112 µg·h/mL
AUC(0-inf) [5, 11]: 113 µg·h/mL
Cmax [5, 10]: 5310 ng/mL
Cmax [5, 11]: 5090 ng/mL
